Data: ChEMBL document CHEMBL3132769, “Fragment growing to retain or alter the selectivity of anchored kinase hinge-binding fragments” (Medchemcomm, 2014)

Assays:
[1] = biological target: Protein kinase C alpha type (Homo sapiens) (UniProt P17252); assay: Inhibition of human truncated PKC alpha expressed in baculovirus assessed as substrate phosphorylation using fluorescence-labelled peptides as substrate at 0.2 uM after 90 mins by microfluidic peptide phosphorylation assay
[2] = biological target: T1, Serine/threonine-protein kinase D2 (Homo sapiens) (UniProt Q9BZL6); assay: Inhibition of human full length PKD2 expressed in baculovirus assessed as substrate phosphorylation using fluorescence-labelled peptides as substrate at 0.2 uM after 90 mins by microfluidic peptide phosphorylation assay
T1 sequence (whole entry): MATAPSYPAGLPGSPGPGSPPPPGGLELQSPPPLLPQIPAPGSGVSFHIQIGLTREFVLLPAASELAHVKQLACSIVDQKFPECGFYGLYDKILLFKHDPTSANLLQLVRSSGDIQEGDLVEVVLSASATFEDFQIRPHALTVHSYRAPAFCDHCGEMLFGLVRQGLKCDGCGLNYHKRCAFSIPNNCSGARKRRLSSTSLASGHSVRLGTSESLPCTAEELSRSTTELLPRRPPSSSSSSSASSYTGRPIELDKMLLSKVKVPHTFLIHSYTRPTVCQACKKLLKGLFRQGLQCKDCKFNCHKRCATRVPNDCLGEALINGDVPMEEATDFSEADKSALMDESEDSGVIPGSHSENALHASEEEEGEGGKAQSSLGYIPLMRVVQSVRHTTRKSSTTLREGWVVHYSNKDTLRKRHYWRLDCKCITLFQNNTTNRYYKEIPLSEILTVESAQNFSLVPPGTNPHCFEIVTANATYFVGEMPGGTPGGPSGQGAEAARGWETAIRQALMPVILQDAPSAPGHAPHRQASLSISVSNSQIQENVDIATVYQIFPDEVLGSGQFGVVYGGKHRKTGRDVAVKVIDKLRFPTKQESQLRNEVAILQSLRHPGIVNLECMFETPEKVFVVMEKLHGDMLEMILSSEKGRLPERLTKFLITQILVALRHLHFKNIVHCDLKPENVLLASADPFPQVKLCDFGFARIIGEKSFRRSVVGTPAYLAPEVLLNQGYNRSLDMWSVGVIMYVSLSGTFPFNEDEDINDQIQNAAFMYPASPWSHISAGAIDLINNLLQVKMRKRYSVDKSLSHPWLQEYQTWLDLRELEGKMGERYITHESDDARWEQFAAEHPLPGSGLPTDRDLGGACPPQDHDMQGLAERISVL

[3] = biological target: T2, Protein kinase C epsilon type (Homo sapiens) (UniProt Q02156); assay: Inhibition of human truncated PKC epsilon expressed in baculovirus assessed as substrate phosphorylation using fluorescence-labelled peptides as substrate at 9 uM after 90 mins by microfluidic peptide phosphorylation assay
T2 sequence (whole entry): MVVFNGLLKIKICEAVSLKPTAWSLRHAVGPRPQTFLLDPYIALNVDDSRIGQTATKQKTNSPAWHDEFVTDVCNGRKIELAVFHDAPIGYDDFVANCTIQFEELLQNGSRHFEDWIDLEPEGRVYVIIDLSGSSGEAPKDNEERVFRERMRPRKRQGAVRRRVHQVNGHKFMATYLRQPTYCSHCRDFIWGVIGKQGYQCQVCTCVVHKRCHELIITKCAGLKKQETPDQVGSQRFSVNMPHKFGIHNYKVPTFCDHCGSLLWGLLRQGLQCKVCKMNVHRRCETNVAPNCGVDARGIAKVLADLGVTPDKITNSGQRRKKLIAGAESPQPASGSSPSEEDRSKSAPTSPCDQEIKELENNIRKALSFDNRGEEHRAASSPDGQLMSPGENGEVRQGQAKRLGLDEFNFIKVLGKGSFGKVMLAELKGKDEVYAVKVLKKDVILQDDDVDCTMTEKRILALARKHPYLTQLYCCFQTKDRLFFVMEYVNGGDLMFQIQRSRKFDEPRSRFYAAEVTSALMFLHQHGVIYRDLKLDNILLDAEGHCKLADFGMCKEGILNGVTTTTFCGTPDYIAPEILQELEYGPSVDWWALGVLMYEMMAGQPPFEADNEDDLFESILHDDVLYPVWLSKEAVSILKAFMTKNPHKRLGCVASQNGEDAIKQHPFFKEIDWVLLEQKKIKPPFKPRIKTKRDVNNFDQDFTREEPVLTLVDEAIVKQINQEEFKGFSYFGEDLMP

[4] = biological target: Epidermal growth factor receptor (Homo sapiens) (UniProt P00533); assay: Inhibition of human EGFR catalytic domain expressed in baculovirus assessed as substrate phosphorylation using fluorescence-labelled peptides as substrate at 0.06 uM after 90 mins by microfluidic peptide phosphorylation assay
[5] = biological target: T3, cGMP-dependent protein kinase 1 (Homo sapiens) (UniProt Q13976); assay: Inhibition of human full length PKG-1a expressed in baculovirus assessed as substrate phosphorylation using fluorescence-labelled peptides as substrate at 8 uM after 90 mins by microfluidic peptide phosphorylation assay
T3 sequence (whole entry): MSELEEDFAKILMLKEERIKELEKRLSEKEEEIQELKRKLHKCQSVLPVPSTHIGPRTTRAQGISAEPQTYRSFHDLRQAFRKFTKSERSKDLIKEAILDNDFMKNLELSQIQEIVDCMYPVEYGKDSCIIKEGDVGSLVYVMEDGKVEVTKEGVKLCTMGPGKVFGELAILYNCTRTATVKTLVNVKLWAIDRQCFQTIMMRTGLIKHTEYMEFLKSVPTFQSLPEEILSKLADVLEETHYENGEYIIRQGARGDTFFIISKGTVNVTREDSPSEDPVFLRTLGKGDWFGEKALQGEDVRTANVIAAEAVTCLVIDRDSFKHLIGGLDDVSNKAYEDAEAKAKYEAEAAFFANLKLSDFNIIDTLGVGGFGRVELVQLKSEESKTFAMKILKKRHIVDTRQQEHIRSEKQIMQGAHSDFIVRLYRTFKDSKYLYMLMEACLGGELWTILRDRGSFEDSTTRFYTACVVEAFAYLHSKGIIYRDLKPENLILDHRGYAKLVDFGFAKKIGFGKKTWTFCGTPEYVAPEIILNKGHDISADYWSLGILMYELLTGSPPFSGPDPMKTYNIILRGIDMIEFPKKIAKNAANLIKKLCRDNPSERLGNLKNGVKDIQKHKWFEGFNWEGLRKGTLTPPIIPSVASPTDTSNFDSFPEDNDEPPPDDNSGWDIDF

[6] = biological target: Ribosomal protein S6 kinase alpha-3 (Homo sapiens) (UniProt P51812); assay: Inhibition of human full length RSK2 expressed in baculovirus assessed as substrate phosphorylation using fluorescence-labelled peptides as substrate at 1000 uM after 90 mins by microfluidic peptide phosphorylation assay
Ribosomal protein S6 kinase alpha-3 (Homo sapiens), sequence (P51812 whole entry): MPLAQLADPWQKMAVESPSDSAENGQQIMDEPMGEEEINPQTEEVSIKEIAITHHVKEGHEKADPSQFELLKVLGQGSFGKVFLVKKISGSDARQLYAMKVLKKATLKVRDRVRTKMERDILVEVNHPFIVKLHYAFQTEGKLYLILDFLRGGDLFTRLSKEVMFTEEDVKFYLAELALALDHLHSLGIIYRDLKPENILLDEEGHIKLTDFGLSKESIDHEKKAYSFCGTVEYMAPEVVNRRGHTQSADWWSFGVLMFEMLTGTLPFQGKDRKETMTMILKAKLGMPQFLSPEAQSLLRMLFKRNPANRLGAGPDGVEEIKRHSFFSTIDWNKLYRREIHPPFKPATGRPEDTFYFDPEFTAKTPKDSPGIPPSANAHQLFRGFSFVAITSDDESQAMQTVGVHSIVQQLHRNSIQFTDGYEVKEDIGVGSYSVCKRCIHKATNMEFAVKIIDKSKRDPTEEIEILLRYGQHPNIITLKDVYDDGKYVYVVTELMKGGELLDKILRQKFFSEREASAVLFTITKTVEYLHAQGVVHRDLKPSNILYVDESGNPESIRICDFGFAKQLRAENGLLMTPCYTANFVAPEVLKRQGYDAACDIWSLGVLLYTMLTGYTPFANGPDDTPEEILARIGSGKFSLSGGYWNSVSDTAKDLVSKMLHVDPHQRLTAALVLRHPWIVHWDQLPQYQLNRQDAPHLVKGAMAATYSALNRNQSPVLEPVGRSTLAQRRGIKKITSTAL

Epidermal growth factor receptor (Homo sapiens), sequence (P00533 whole entry, the tested form may be a part): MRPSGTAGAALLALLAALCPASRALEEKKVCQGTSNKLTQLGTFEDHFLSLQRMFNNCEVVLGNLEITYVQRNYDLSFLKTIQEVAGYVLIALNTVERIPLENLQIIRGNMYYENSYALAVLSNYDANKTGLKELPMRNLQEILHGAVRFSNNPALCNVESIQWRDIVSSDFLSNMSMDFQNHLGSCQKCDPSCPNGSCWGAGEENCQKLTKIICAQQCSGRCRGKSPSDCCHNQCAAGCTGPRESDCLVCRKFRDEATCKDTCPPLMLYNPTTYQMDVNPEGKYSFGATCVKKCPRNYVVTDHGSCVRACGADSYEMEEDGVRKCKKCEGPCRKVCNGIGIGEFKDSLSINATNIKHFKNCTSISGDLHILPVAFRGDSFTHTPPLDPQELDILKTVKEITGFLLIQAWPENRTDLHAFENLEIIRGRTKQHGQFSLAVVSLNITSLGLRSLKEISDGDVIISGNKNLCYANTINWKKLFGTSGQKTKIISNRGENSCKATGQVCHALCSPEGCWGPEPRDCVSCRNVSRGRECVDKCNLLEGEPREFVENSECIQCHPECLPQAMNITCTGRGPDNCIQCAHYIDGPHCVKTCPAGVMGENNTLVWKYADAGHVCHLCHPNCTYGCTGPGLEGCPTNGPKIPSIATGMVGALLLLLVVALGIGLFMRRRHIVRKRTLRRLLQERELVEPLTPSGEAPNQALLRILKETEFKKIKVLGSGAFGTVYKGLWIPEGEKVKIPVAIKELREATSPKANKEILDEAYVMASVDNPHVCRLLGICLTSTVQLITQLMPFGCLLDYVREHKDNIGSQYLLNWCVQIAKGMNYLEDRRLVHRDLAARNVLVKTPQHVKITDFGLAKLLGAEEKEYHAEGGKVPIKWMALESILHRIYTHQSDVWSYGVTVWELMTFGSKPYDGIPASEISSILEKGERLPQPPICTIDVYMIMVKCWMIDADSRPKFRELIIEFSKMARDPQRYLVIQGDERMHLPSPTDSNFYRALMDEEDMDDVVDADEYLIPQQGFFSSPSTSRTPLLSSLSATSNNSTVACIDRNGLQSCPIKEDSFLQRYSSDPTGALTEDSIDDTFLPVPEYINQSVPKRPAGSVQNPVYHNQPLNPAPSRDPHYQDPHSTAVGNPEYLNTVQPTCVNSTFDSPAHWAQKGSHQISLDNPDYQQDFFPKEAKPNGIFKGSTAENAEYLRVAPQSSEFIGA

## Clc1ccc(C2(c3ccc(-c4ncnc5[nH]cnc45)cc3)CCNCC2)cc1
[1]
  inhibition: 77.5%
[2]
  inhibition: 13%

## NCC1CN(c2ncnc3[nH]c4cnccc4c23)CCO1 (stereo unspecified)
[3]
  inhibition: 14.5%

## NC1(Cc2ccc(Cl)cc2)CCN(c2ncnc3[nH]ccc23)CC1
[4]
  inhibition: 0%

## NCC1CCN(c2ncnc3[nH]ccc23)CC1
[5]
  inhibition: 14%

## c1cnc2[nH]ccc2c1
[6]
  inhibition: 68.5%
